Test results taken from article PMC7281072 (Cancers, 2020).

What was measured:
[1] = tested on: SKOV-3 human ovarian adenocarcinoma xenograft; set-up: species or system CB17 SCID mice; conditions: mouse, in vivo; as to MST (mean survival time): test concentration or dose not given here; as to TI% (Tumor Inhibition): test concentration or dose not given here
[2] = tested on: OVCAR-5 human ovarian adenocarcinoma xenograft; set-up: species or system CB17 SCID mice; conditions: mouse, in vivo; as to MST (mean survival time): test concentration or dose not given here; as to TI% (Tumor Inhibition): test concentration or dose not given here
CB17 SCID mice = conditions: both, mouse, in vivo, ip
in vivo = conditions: both, CB17 SCID, mouse, ip

NC(Cc1ccc(N(CCCl)CCCl)cc1)C(=O)O [L-PAM, 2-amino-3-(4-(bis (2-chloroethyl)amino)phenyl) propanoic acid, reference compound]
Median Overall Survival (OS) [1]: 49 days | Progression Free Survival (PFS) [1]: 0 days | Response Rate (RR) [1]: 0% | antitumor activity (in words) [1]: no significant antitumor activity | Cures (mice alive for 120 days after tumor inoculation) ([1]; ip): 0/5 | MST (mean survival time) ([1]; ip): 48.5 ± 2.3 days | T/C% (mean survival time of treated versus saline controls) ([1]; ip): 119.7% | TI% (Tumor Inhibition) ([1]; ip): 10.5% | Median Overall Survival (OS) [2]: 60 days | Progression Free Survival (PFS) [2]: 0 days | Response Rate (RR) [2]: 0% | antitumor activity (in words) [2]: no significant antitumor activity | Cures (mice alive for 120 days after tumor inoculation) ([2]; ip): 0/5 | MST (mean survival time) ([2]; ip): 61.0 ± 4.3 days | T/C% (mean survival time of treated versus saline controls) ([2]; ip): 120.8% | TI% (Tumor Inhibition) ([2]; ip): 24.5% | LD10 (CB17 SCID mice): 14 mg/kg | LD50 (in vivo): 20.8 mg/kg
